Data as given in US20250136617A1 (The Regents of the University of Colorado, A Body Corporate, priority 2022, published 2025).
Entries after “also recorded” stand apart in the source; their conditions may differ.

Assays:
[1] = system: diabetic wounds in Db mice; test: Diabetic wound healing, full-thickness excisional 8 mm wounds in Db mice; format: in vivo; details: for reduction of wound closure time vs PBS: 10 μM; for wound surface area vs PBS: post-injury day 6
Protocol: The ability of compound UCUF-728 to improve diabetic wound healing in vivo was examined. Full-thickness excisional 8 mm wounds were created in Db mice and were immediately treated with 10 μM UCUF-728 or phosphate-buffered saline (PBS) control. Wound healing over the course of 22 days was monitored. Initial wound size was calculated immediately after wounding, and wound closure was assessed over time as the percentage of initial wound area. […] The effect of UCUF-728 treatment on angiogenesis was assessed using immunohistochemistry for endothelial marker CD31. Representative photos of immunoperoxidase staining for CD31 at 7 days in diabetic wounds treated with PBS or UCUF-728 are shown in FIG. 8A.
The ability of UCUF-965, a thiadiazine compound, to improve diabetic wound healing in vivo was examined. Full-thickness excisional 8 mm wounds were created in Db mice and were immediately treated with 10 μM UCUF-965 or PBS control. Wound healing over the course of 22 days was monitored. Initial wound size was calculated immediately after wounding, and wound closure was assessed over time as the percentage of initial wound area. FIG. 13 indicated the wound healing effect of UCUF-965 topical administration on excision wound model on different days after injury. […] UCUF-965-treated diabetic wounds closed around 14 days after treatment whereas control PBS-treated wounds healed at day 22. UCUF-965 is a promising positive allosteric modulator of CXCR4 signaling to treat diabetic would healing.
All animal experiments were approved by the Institutional Animal Care and Use Committee at the University of Colorado Denver—Anschutz Medical Campus, and experimental protocols followed the guidelines described in the NIH Guide for the Care and Use of Laboratory Animals. In these experiments, 10 week old, female, genetically diabetic C57BKS.Cg-m/Leprdb/J (Db) mice and heterozygous, non-diabetic (non-Db), age-matched female controls from the Jackson Laboratory (Bar Harbor, ME) were used. Mice were anesthetized with inhaled isoflurane. Each mouse was shaved and depilated before wounding. The dorsal skin was swabbed with alcohol and Betadine (Purdue Pharma, Stamford, CT). Each mouse received a single, full-thickness dorsal wound (including panniculus carnosum) with an 8-mm punch biopsy (Miltex Inc, York, PA). After wounding, a Hamilton syringe was used to deliver 50 μL of either 10 uM test compound or PBS, as a control. 10 μL were injected intradermally at 12, 3, 6 and 9 o'clock and at the wound base. […] Mice pictures were taken every other day, wound size was analyzed by Image J. A full-thickness skin sample, centered on the wound, was harvested 3 and 7 days after surgery (n=5 per timepoint).

[2] = system: miR-15b; test: qPCR of miR-15b expression in human dermal fibroblasts; format: cell-based; details: 24 hours, 0.1, 1 and 10 uM
Protocol: (§1) An additional secondary screen was performed to further validate activity of UCUF-728 as a selective CXCR4 receptor modulator. Human diabetic and non-diabetic fibroblasts were cultured with increasing concentrations of the compound. The cells were incubated for 24 hours and then total cellular RNA was isolated to examine the ability of the compound to correct the abnormal expression of miR15b, and miR29a. It has been shown that human diabetic skin has increased miR-15b expression at baseline compared to non-diabetic skin (Xu et al. “The role of microRNA-15b in the impaired angiogenesis in diabetic wounds.” Wound Repair Regen 2014; 22(5):671-7).
(§2) Diabetic and non-diabetic fibroblasts were cultured with increasing concentrations of a UCUF-965 compound. The cells were incubated for 24 hours and then total cellular RNA was isolated to examine the ability of the compound to correct the abnormal expression of miR15b, and miR29a. Angiogenesis is regulated by hypoxia and the production of growth factors such as Hypoxia-inducible Factor 1-alpha (HIF-1a) and Vascular Endothelial Growth Factor (VEGF). […] MicroRNA-15b (miR-15b) has been described as a key negative modulator of angiogenesis. Under hypoxia, miR-15b is repressed, resulting in an increased level of VEGF. Over-expression of miR-15b also markedly attenuates hypoxia induced vessel tube formation and cell migration. […]

[3] = system: miR-29a; test: qPCR of miR-29a expression in human dermal fibroblasts; format: cell-based; details: 24 hours, 0.1, 1 and 10 uM
Protocol: as §1, §2

| SMILES | reduction of wound closure time vs PBS [1] [%] | wound surface area vs PBS [1] | miR-15b expression ([2]; listed as UCUF-728) | miR-29a expression ([3]; listed as UCUF-728) | miR-15b expression ([2]; listed as UCUF-965) | miR-29a expression ([3]; listed as UCUF-965) |
| --- | --- | --- | --- | --- | --- | --- |
| COc1ccc(OC)c(NS(=O)(=O)c2ccc(-c3cnc(C4CC4)o3)cc2)c1 [Oxazole Entry 19, 4-(2-Cyclopropyloxazol-5-yl)-N-(2,5-dimethoxyphenyl)benzenesulfonamide] | 36 | decrease in wound surface area | decreased expression of miR-15b; also recorded: potent suppression of miR-15b expression | significant decrease in miR-29a expression level; also recorded: reduced miR-29a expression | – | – |
| CCOc1ccccc1-c1nnc2n1N=C(c1ccc(N3CCCC3)cc1)CS2 [Thiadiazine Entry 23, 3-(2-ethoxyphenyl)-6-(4-(pyrrolidin-1-yl)phenyl)-7H-[1,2,4]triazolo[3,4-b][1,3,4]thiadiazine] | 36 | decrease in wound surface area | – | – | decreased expression of miR-15b | significant decrease in miR-29a; also recorded: decreased |
